In ChEMBL document CHEMBL3817842, “Structure-based optimization and derivatization of 2-substituted quinolone-based non-nucleoside HCV NS5B inhibitors with submicromolar cellular replicon potency” (Bioorg Med Chem Lett, 2016):
The source made the active and inactive calls. The calls are words filed in the database; no cut-off is given here.

Assays:
Hepatitis C virus [1] = experiment: Antiviral activity against HCV genotype 2a JFH1 infected in human Huh7.5.1 cells at 5 uM incubated for 72 hrs by GFP based J399EAM HCV reporter assay; assay type: functional, Hepacivirus hominis; settings: for inhibition at 5 µM: subtype 2a JFH1, Huh-7, 72 h; for inhibition: Hepacivirus hominis, subtype 2a JFH1, Huh-7
[2] = Cytotoxicity against human Huh7.5.1 cells infected with human HCV genotype 2a JFH1 assessed as cell viability at 5 uM incubated for 72 hrs by MTT assay; assay type: cell-based, Huh-7; settings: Huh7.5.1 cells infected with HCV genotype 2a JFH1, read-out: Activity
[3] = Cytotoxicity against human Huh7.5.1 cells infected with human HCV genotype 2a JFH1 incubated for 72 hrs by MTT assay; assay type: cell-based, Huh-7; settings: Huh7.5.1 cells infected with HCV genotype 2a JFH1
[4] = Selectivity index, ratio of CC50 for human Huh7.5.1 cells infected with human HCV genotype 2a JFH1 to EC50 for HCV genotype 2a JFH1 infected in human Huh7.5.1 cells; set-up: species or system Huh-7
Hepatitis C virus [5] = experiment: Antiviral activity against HCV genotype 2a JFH1 infected in human Huh7.5.1 cells incubated for 72 hrs by GFP based J399EAM HCV reporter assay; assay type: functional, organism-based, Hepacivirus hominis; settings: subtype 2a JFH1, Huh-7, 72 h

Row | SMILES | inhibition at 5 µM (Hepatitis C virus [1]) [%] | viability at 72 h, 5 µM [2] [%] | CC50 at 72 h [3] [µM] | Ratio CC50/EC50 [4] | EC50 (Hepatitis C virus [5]) [µM] | inhibition (Hepatitis C virus [1])
1 | Nc1ccc(-n2ccc(=O)c3c(=O)n(CC4CCCCC4)ccc32)cc1C(F)(F)F | 7.7 | 100 | – | – | – | –
2 | Cc1ccc(Cn2ccc3c(c(=O)ccn3-c3ccc(N)c(C(F)(F)F)c3)c2=O)c(C)c1 | 51.7 | 99.8 | – | – | – | –
3 | Cc1ccc(C(=O)Nc2ccc(-n3ccc(=O)c4c(=O)n(Cc5ccc(Cl)cc5)ccc43)cc2)o1 | 42.6 | 88 | – | – | – | –
4 | O=C(Nc1ccc(F)cc1)Nc1ccc(-n2ccc(=O)c3c(=O)n(Cc4ccc(Cl)cc4)ccc32)cc1 | 18.8 | 98.4 | – | – | – | –
5 | Cc1cc(NC(=O)c2ccccc2F)ccc1-n1ccc(=O)c2c(=O)n(Cc3ccc(Cl)cc3)ccc21 | 55.2 | 72.6 | – | – | – | –
6 | O=c1ccn(-c2ccc([N+](=O)[O-])cc2C(F)(F)F)c2ccn(Cc3ccc(Cl)cc3)c(=O)c12 | 58.6 | 88.2 | – | – | – | –
7 | O=C(Nc1ccc(-n2ccc(=O)c3c(=O)n(Cc4ccc(Cl)cc4)ccc32)c(C(F)(F)F)c1)c1cc(F)ccc1F | 98.2 | 38.4 | 1.5 | 1.1 | 1.4 | –
8 | CCc1c(C(=O)OCc2ccc(Cl)cc2)c(=O)c2cc(F)c(OC)cc2n1Cc1ccc(Cl)cc1 | – | – | 26.8 | 7.2 | 3.7 | –
9 | Nc1ccc(-n2ccc(=O)c3c(=O)n(Cc4ccc(Cl)cc4)ccc32)cc1C(F)(F)F | 78.9 | 74.3 | 17.9 | 7.2 | 2.5 | –
10 | O=C(Nc1ccc(-n2ccc(=O)c3c(=O)n(Cc4ccc(Cl)cc4)ccc32)cc1)c1ccccn1 | 41.7 | 88.7 | – | – | – | –
11 | COCc1c(C(=O)OCc2ccc(Cl)cc2)c(=O)c2cc(F)c(OC)cc2n1Cc1ccc(Cl)cc1 | – | – | > 40 | >3.6 | 11.1 | –
12 | O=C(Nc1ccc(F)cc1)Nc1ccc(-n2ccc(=O)c3c(=O)n(Cc4ccc(Cl)cc4)ccc32)c(C(F)(F)F)c1 | 33.4 | 75.4 | – | – | – | –
13 | Nc1ccc(-n2ccc(=O)c3c(=O)n(Cc4ccc(Cl)cc4)ccc32)cc1Cl | 68 | 79.2 | 19.4 | 3 | 6.4 | –
14 | Nc1ccc(-n2ccc(=O)c3c(=O)n(Cc4ccccc4)ccc32)cc1C(F)(F)F | – | 96.8 | – | – | – | inactive
15 | Nc1ccc(-n2ccc(=O)c3c(=O)n(Cc4ccc(Cl)cc4)ccc32)cc1 | 39.8 | 94.6 | – | – | – | –
16 | COCc1c(C(=O)OCc2ccc(Cl)cc2)c(=O)c2cc(F)c(N3CCN(Cc4ccccc4)CC3)cc2n1Cc1ccc(Cl)cc1 | – | – | > 40 | >8.2 | 4.9 | –
17 | N#Cc1ccc(-n2ccc(=O)c3c(=O)n(Cc4ccc(Cl)cc4)ccc32)cc1C(F)(F)F | – | 86.4 | – | – | – | inactive
18 | COc1cc2c(cc1F)c(=O)c(C(=O)OCc1ccc(Cl)cc1)c(C)n2Cc1ccc(Cl)cc1 | – | – | > 40 | >16.7 | 2.4 | –
19 | Cc1cc(N)ccc1-n1ccc(=O)c2c(=O)n(Cc3ccc(Cl)cc3)ccc21 | 52 | 91.6 | – | – | – | –
20 | Cc1ccc(Cn2ccc3c(c(=O)ccn3-c3ccc(N)c(C(F)(F)F)c3)c2=O)cc1 | 38.7 | 100 | – | – | – | –
21 | O=C(Nc1ccc(-n2ccc(=O)c3c(=O)n(Cc4ccc(Cl)cc4)ccc32)cc1)c1cc(F)ccc1F | 95.7 | 46.1 | 6.4 | 1.4 | 4.6 | –
22 | Nc1ccc(-n2ccc(=O)c3c(=O)n(Cc4ccc(Cl)cc4)ccc32)c(C(F)(F)F)c1 | 43.8 | 84.8 | – | – | – | –
23 | CN1CCN(c2c(F)cc3c(=O)c(C(=O)OCc4ccc(Cl)cc4)c(-c4ccc(F)cc4)n(C4CC4)c3c2F)CC1 | – | – | 13.2 | 5.5 | 2.02 | –
24 | O=c1ccn(-c2ccc([N+](=O)[O-])c(C(F)(F)F)c2)c2ccn(Cc3ccc(Cl)cc3)c(=O)c12 | 65.7 | 75.6 | 10.6 | 2.2 | 4.8 | –
25 | Cc1cc(NC(=O)Nc2ccc(F)cc2)ccc1-n1ccc(=O)c2c(=O)n(Cc3ccc(Cl)cc3)ccc21 | 53.1 | 70.4 | – | – | – | –
26 | O=C(Nc1ccc(-n2ccc(=O)c3c(=O)n(Cc4ccc(Cl)cc4)ccc32)cc1)c1ncccc1Cl | 52.3 | 68.6 | – | – | – | –
27 | Cc1c(C(=O)OCc2ccc(Cl)cc2)c(=O)c2cc(F)c(N3CCN(C)CC3)cc2n1Cc1ccc(Cl)cc1 | – | – | 33.1 | 4.6 | 7.2 | –
28 | CN1CCN(c2cc3c(cc2F)c(=O)c(C(=O)OCc2ccc(Cl)cc2)cn3Cc2ccc(Cl)cc2)CC1 | – | – | > 40 | >9.3 | 4.3 | –
29 | COCc1c(C(=O)OCc2ccc(Cl)cc2)c(=O)c2cc(F)c(N3CCN(C)CC3)cc2n1Cc1ccc(Cl)cc1 | – | – | 4.3 | 10.8 | 0.4 | –
30 | Nc1ccc(-n2ccc(=O)c3c(=O)n(CC4CC=CC4)ccc32)cc1C(F)(F)F | – | 100 | – | – | – | inactive
